Laboratory results published in PMC9962735, “Synthesis and Cytotoxic Activity of the Derivatives of N-(Purin-6-yl)aminopolymethylene Carboxylic Acids and Related Compounds” (Molecules, 2023).

Columns and labels:
[1] = tested on: A549, SK-BR-3, SNU-1, Jurkat, WI-38 cell lines; test: MTT cytotoxicity assay, cell line panel (result in words); type: cell-based, human; conditions: 72 h
Text: (§1) The cytotoxicity of the test compounds was studied using the MTT assay against a number of cell lines: CT-26 murine colon carcinoma, 4T1 murine mammary carcinoma, MDA-MB-231 human breast adenocarcinoma, COLO201 human colorectal adenocarcinoma, HepG2 human hepatocellular carcinoma, A549 human non-small-cell lung carcinoma, SK-BR-3 human breast adenocarcinoma, SNU-1 human gastric carcinoma, Jurkat human acute T-lymphoblastic leukemia, and WI-38 human lung fibroblasts (normal cells). Doxorubicin (Dox) was used as a reference drug. Cells were incubated with test compounds for 72 h.
The cytotoxicity of compounds 2a–c, 6, 7, and 9 was also studied using the MTT assay against a number of tumor cell lines: A549, SK-BR-3, SNU-1, Jurkat, as well as normal fibroblasts WI-38 (Table 3).
(§2) Cells were seeded in flat-bottomed 96-well plates at 10,000 cells per well (for A549, SNU-1, WI-38, CT-26, MDA-MB-231, 4T1, and HepG2 cells) or 20,000 cells per well (for SK-BR-3, Jurkat, and COLO201 cells) and cultivated in complete culture mediums (for composition of each medium, see the Supplementary Materials, Table S1) in a CO2 incubator at 37 °C. At the first stage of this study, the test compounds dissolved in DMSO were added to the wells with cells at final concentrations from 1 × 10^–4 to 1 × 10^–10 mol/L (A549, SK-BR-3, SNU-1, Jurkat, and WI-38) or 1 × 10^–3 to 1 × 10^–8 mol/L (CT-26, MDA-MB-231, 4T1, COLO201, and HepG2); DMSO concentration in the wells was finally 1%. A complete cultural medium and DMSO were added to the control wells at the same concentration as in the experimental wells; 0.1% Triton X-100 solution (10 µL) was added to the corresponding wells as a non-specific positive control. After adding the test compounds, the cells were incubated for 72 h in an atmosphere containing 5% CO2. After that, the nutrient medium was removed from each well (in the case of SK-BR-3, Jurkat, and COLO201, plates were pre-centrifuged at 1500 rpm for 6 min). A solution of the commercial anticancer agent Doxorubicin (Dox, Sigma-Aldrich, St. Louis, MO, USA) in DMSO was used as a reference drug. Then, 150 µL of a complete medium with the MTT reagent (PanEco, Moscow, Russia) at a concentration of 0.5 mg/mL was added and incubated for 2 h. Formazan crystals were dissolved in DMSO (200 µL) and the absorbance in the wells was measured at 540 nm and a reference wavelength of 650 nm (Sunrise, Tecan, Groding, Austria). Experiments were performed in three parallel runs. Cell viability after incubation in the presence of test compounds was calculated in relation to cell viability in the control wells according to the Formula (1):Cell viability (%) = (Aexp/Ac) × 100,(1) where Aexp is the optical density of solutions in the wells containing test compounds; Ac is the optical density of solutions in control wells without test compounds. For detailed information on cell viability of various cell lines, see the Supplementary Materials, Figures S21–S26.
(§3) At the second stage of this study, in order to more accurately calculate the CC50 (the half maximal inhibitory concentration), the cytotoxic effect of test compounds was evaluated at concentrations close to CC50 found at the first stage. The study of the cytotoxic activity of each substance towards the cells of each line was carried out in triplicate; the mean value was used to calculate CC50. The CC50 values were determined by non-linear regression analysis using Graph-Pad Prism7.

[2] = tested on: A549 human non-small-cell lung carcinoma; test: MTT cytotoxicity assay, A549; type: cell-based; conditions: Homo sapiens, A549, 72 h, A549, 72 h incubation, MTT, n = 3 (Table 3)
Text: as §1, §2, §3

[3] = tested on: SK-BR-3 human breast adenocarcinoma; test: MTT cytotoxicity assay, SK-BR-3; type: cell-based; conditions: Homo sapiens, SK-BR-3, 72 h, SK-BR-3, 72 h incubation, MTT, n = 3 (Table 3)
Text: as §1, §2, §3

[4] = MTT cytotoxicity assay, WI-38 normal cells; type: cell-based; conditions: human, WI-38 lung fibroblasts (normal cells), WI-38, 72 h incubation, MTT, n = 3 (Table 3)
Text: as §1, §2, §3

[5] = tested on: Jurkat human acute T-lymphoblastic leukemia; test: MTT cytotoxicity assay, Jurkat; type: cell-based; conditions: Homo sapiens, Jurkat, 72 h, 72 h incubation, MTT, n = 3 (Table 3)
Text: as §1, §2, §3

[6] = tested on: SNU-1 human gastric carcinoma; test: MTT cytotoxicity assay, SNU-1; type: cell-based; conditions: Homo sapiens, SNU1, 72 h, SNU-1, 72 h incubation, MTT, n = 3 (Table 3)
Text: as §1, §2, §3

[7] = MTT cytotoxicity assay, A549; type: cell-based, human; conditions: human, CC50 of WI-38 divided by CC50 of A549 (Table 3); read-out: SCI (selective cytotoxicity index)
Text: as §1, §2, §3

[8] = MTT cytotoxicity assay, SK-BR-3; type: cell-based, human; conditions: human, CC50 of WI-38 divided by CC50 of SK-BR-3 (Table 3); read-out: SCI (selective cytotoxicity index)
Text: as §1, §2, §3

[9] = MTT cytotoxicity assay, Jurkat; type: cell-based, human; conditions: human, CC50 of WI-38 divided by CC50 of Jurkat (Table 3); read-out: SCI (selective cytotoxicity index)
Text: as §1, §2, §3

[10] = MTT cytotoxicity assay, SNU-1; type: cell-based, human; conditions: human, CC50 of WI-38 divided by CC50 of SNU-1 (Table 3); read-out: SCI (selective cytotoxicity index)
Text: as §1, §2, §3

SMILES | cytotoxic activity (in words) [1] | CC50 [2] [µM] | CC50 [3] [µM] | CC50 at 72 h [4] [µM] | CC50 [5] [µM] | CC50 [6] [µM] | melting point [°C] | selectivity ratio at 72 h [7] | selectivity ratio at 72 h [8] | selectivity ratio at 72 h [9] | selectivity ratio at 72 h [10]
O=C(O)CCCCCCCCCCCNc1ncnc2nc[nH]c12 [Compound 2b, N-(Purin-6-yl)-12-aminododecanoic Acid] | cytotoxic only against the Jurkat cell line | > 100 | > 100 | > 100 | 49 | > 100 | – | – | – | – | –
C[C@H]1COc2c(ccc(F)c2F)N1C(=O)CCCCCCCCC(=O)N1c2ccc(F)c(F)c2OC[C@@H]1C (hydrate or solvate) [(S)-9, 1,10-bis((S)-7,8-Difluoro-3-methyl-2H-benzo[b][1,4]oxazin-4(3H)-yl)decan-1,10-dione] | – | – | – | – | – | – | 41 to 42 | – | – | – | –
C[C@H]1COc2c(ccc(F)c2F)N1C(=O)CCCCCCCCC(=O)N1c2ccc(F)c(F)c2OC[C@@H]1C [(S)-9, 1,10-bis((S)-7,8-Difluoro-3-methyl-2H-benzo[b][1,4]oxazin-4(3H)-yl)decan-1,10-dione] | did not exhibit cytotoxic activity | > 100 | > 100 | > 100 | > 100 | > 100 | – | – | – | – | –
CC1COc2c(ccc(F)c2F)N1C(=O)CCCCCCCCC(=O)N1c2ccc(F)c(F)c2OCC1C (stereo not drawn) (hydrate or solvate) [Compound 9, 1,10-bis(-7,8-Difluoro-3-methyl-2H-benzo[b][1,4]oxazin-4(3H)-yl)decan-1,10-dione] | – | – | – | – | – | – | 103 to 104 | – | – | – | –
COc1cccc2c1C(=O)c1c(O)c3c(c(O)c1C2=O)C[C@@](O)(C(=O)CO)C[C@@H]3O[C@H]1C[C@H](N)[C@H](O)[C@H](C)O1 [Dox, Doxorubicin, reference compound] | – | 0.22 | 1.5 | 0.23 | 0.12 | 0.14 | – | 1 | 0.15 | 1.9 | 1.6
CC(=O)OCCOCn1cnc2c(NCCCCCCCCCCC(=O)N3c4ccc(F)c(F)c4OCC3C)ncnc21 (stereo not drawn) [Compound 6, {11-[9-(2-Acetoxyethoxy)methylpurin-6-yl]aminoundecanoyl]-7,8-difluoro-3,4-dihydro-3-methyl-2H-[1,4]benzoxazine] | approximately the same cytotoxicity as the most active compound 1d | 15 | 370 | 30 | 10 | 5.6 | – | 2 | 0.08 | 3 | 5.4
CC1COc2c(ccc(F)c2F)N1C(=O)CNc1ncnc2[nH]cnc12 (stereo not drawn) [Compound 1a] | non-cytotoxic | > 100 | > 100 | > 100 | > 100 | > 100 | – | – | – | – | –
O=C(O)CCCCCCCCCCCCCCNc1ncnc2nc[nH]c12 [Compound 2c, N-(Purin-6-yl)-15-aminopentadecanoic Acid] | no cytotoxic activity | > 100 | > 100 | > 100 | > 100 | > 100 | 198 to 199 | – | – | – | –
CC1COc2c(ccc(F)c2F)N1C(=O)CCCCCCCCC(=O)N1c2ccc(F)c(F)c2OCC1C (stereo not drawn) [Compound 9, 1,10-bis(-7,8-Difluoro-3-methyl-2H-benzo[b][1,4]oxazin-4(3H)-yl)decan-1,10-dione] | did not exhibit cytotoxic activity | > 100 | > 100 | > 100 | > 100 | > 100 | – | – | – | – | –
O=C(O)CCCCCCCCCCNc1ncnc2nc[nH]c12 [Compound 2a, N-(Purin-6-yl)-11-aminoundecanoic Acid] | cytotoxic only against the Jurkat cell line | > 100 | > 100 | > 100 | 59 | > 100 | 172 to 174 | – | – | ≥ 1.7 | –
